For data set [1], the system named is SCID mice injected with CD45RBhigh cells. Nature of the data set: Adoptive transfer in mice (T cell driven model of colonic inflammation; assay (v)). Format: in vivo. The settings on record: for % Inhibition (of induction window between naïve and vehicle animals, colon weight:length) / Colon weight:length: 3 mg/kg BID oral gavage, day 14 to day 49 (Reference Compound A lowered to 0.6 mg/kg on day 27). As for the experimental part: On Study day 0, female Balb/C mice are terminated and spleens obtained for CD45RB^high cell isolation (Using SCID IBD cell Separation protocol). Approximately 4×10^5 cells/mL CD45RB^high cells are then injected intraperitoneally (100 μL/mouse) into female SCID animals. On study day 14, mice are weighed and random/zed into treatment groups based on body weight. On Day 14, compounds are administered BID, via oral gavage, in 5% polyoxyethylene 40 stearate in 20 mM pH 7.8 aqueous phosphate buffer in a dose volume of 5 mL/kg. Treatment continues until study day 49, at which point the animals are necropsied 4 hours after the morning administration. The colon length and weight are recorded and used as a secondary endpoint in the study as a measurement of colon oedema. The colon is then divided into six cross-sections, four of which are used for histopathology scoring (primary endpoint) and two are homogenised for cytokine analysis. Data shown is the % inhibition of the induction window between naïve animals and vehicle animals, where higher inhibition implies closer to the non-diseased, naïve, phenotype.

Data set [2] is described as follows: Solubility in fasted-state simulated colonic fluid (FaSSCoF) at pH 6.5. Format: physicochemical. As to conditions: pH 6.5, 25° C.; for solubility thermodynamic at 24 h: fasted-state simulated colonic fluid (FaSSCoF), 25 °C, pH 6.5, fassgf or other biorelevant, thermodynamic from solid. In short, it runs like this:
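Compounds suspended to a maximum 2-10 mg/mL in FaSSCoF pH 6.5 (Tris/maleate buffer with a bile acid mixture, phosphatidylcholine, palmitic acid, BSA). Equilibrated 24 h at 25° C, filtered through glass fibre, and the filtrate quantified by HPLC against a standard.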

Data set [3] is described as follows: Microcentrifuge dissolution test 2): direct dosing into intestinal media containing simulated bile-salt micelles (IB-SIF). The format is physicochemical. As to conditions: for Concentration, IB Timepoint 0 min / Concentration, IB Timepoint 4 min / Concentration, IB Timepoint 10 min / Concentration, IB Timepoint 20 min / Concentration, IB Timepoint 40 min / Concentration, IB Timepoint 90 min / Concentration, IB Timepoint 1,200 min / Additional concentration, UCF Timepoint 90 min: IB-SIF; for Concentration, IB Timepoint 0 min: pH 6.5, 0 min; for Concentration, IB Timepoint 4 min: pH 6.5, 4 min; for Concentration, IB Timepoint 10 min: pH 6.5, 10 min; for Concentration, IB Timepoint 20 min: pH 6.5, 20 min; for Concentration, IB Timepoint 40 min: pH 6.5, 40 min; for Concentration, IB Timepoint 90 min: pH 6.5, 90 min; for Concentration, IB Timepoint 1,200 min: pH 6.5, 1,200 min; for Additional concentration, UCF Timepoint 90 min / Additional concentration, UCF Timepoint 1,200 min: after ultracentrifugation (free drug + drug in micelles); for Additional concentration, UCF Timepoint 1,200 min: IB-SIF, 1,200 min. As for the experimental part: In vitro non-sink dissolution performance of the Compound of Example 3 was evaluated alongside Reference Compounds A and B employing microcentrifuge dissolution tests in which samples were either 1) transferred from intestinal buffer (IB) to colonic buffer (CB) or 2) dosed directly into intestinal media containing simulated bile-salt micelles (IB-SIF). Dissolution performance of the compounds at various timepoints was determined by centrifugation and analysis of the supernatant concentrations by off-line reverse-phase HPLC analysis.
Test compounds (0.45 mg±0.05 mg) were weighed into a microcentrifuge tube then 1.800 mL of IB-SIF receptor solution—prepared previously by dissolution of 0.250 g SIF powder (Biorelevant.com) in 50 mL of pH 6.5 PBS warmed to 37° C.—was added. A timer was started and the sample tubes were vortexed at the maximum setting for 1 minute. When the timer read 2, 8, 18, 38, 88 and 1,198 min—corresponding to the 4, 10, 20, 40, 90 and 1,200 min timepoints, respectively—the sample tubes were centrifuged for 1 min at 15,800 RCF. Then, at each timepoint, the supernatant (50 μL) was added to diluent {250 μL of 75/25 THF/Water (v/v)} and the compound concentrations were measured by off-line HPLC analysis (Table 7a). To determine the concentration of free drug+drug in micelles, the HPLC samples for the 90 and 1,200 min timepoints were additionally centrifuged for 8 min at 80,000 rpm at 37° C. in an ultracentrifuge (UCF), then the supernatant (50 μL) was added to diluent {250 PL of 75/25 THF/Water (v/v)} and the compound concentrations were measured by off-line HPLC analysis (Table 7b).

Where [4] appears, read: Run 1, read-out: pH 6.5 FaSSCoF Solubility Run 1.
The mark [5] stands for this setting: Run 2, read-out: pH 6.5 FaSSCoF Solubility Run 2.

≈ marks a conversion by molar mass, not a printed value. Like-named read-outs stand apart in the source and are kept apart here.

With `COc1cc(Nc2nccc(Oc3ccc(NC(=O)Nc4cc(C(C)(C)C)cc(NS(C)(=O)=O)c4OC)c4ccccc34)n2)cc(OCCOCCOCCC(=O)O)c1` [Reference Compound A, 3-(2-(2-(3-((4-((4-(3-(5-(tert-butyl)-2-methoxy-3-(methylsulfonamido)phenyl)ureido)naphthalen-1-yl)oxy)-pyrimidin-2-yl)amino)-5-methoxyphenoxy)ethoxy)ethoxy)propanoic acid], in data set [1], the “% Inhibition (of induction window between naïve and vehicle animals, colon weight:length)” value (shortened to “% Inhibition”) is reported as −14%; the “Colon weight:length” value was 0.047 ± 0.007. The “pH 6.5 FaSSCoF Solubility Run 1” value in data set [2] (24 h, Run 1) is 0.007 mg/mL. The “pH 6.5 FaSSCoF Solubility Run 2” value in data set [2] (24 h, Run 2) is given as 0.007 mg/mL. In addition, in data set [3], the “Concentration, IB Timepoint 0 min” value is 0.0 µg/mL; the “Concentration, IB Timepoint 4 min” value was 39.8 µg/mL; the “Concentration, IB Timepoint 10 min” value was 63.4 µg/mL; the “Concentration, IB Timepoint 20 min” value was 83.5 µg/mL. Moreover, in data set [3], the “Concentration, IB Timepoint 40 min” value is 96.5 µg/mL; the “Concentration, IB Timepoint 90 min” value is 99.9 µg/mL; the “Concentration, IB Timepoint 1,200 min” value was 101.0 µg/mL; the “Additional concentration, UCF Timepoint 90 min” value was 87.0 µg/mL. In addition, the “Additional concentration, UCF Timepoint 1,200 min” value in data set [3] was 88.8 µg/mL.

Take `COc1cc(Nc2cc(Oc3ccc(NC(=O)Nc4cc(C(C)(C)C)cc(NS(C)(=O)=O)c4OC)c4ccccc34)ccn2)cc(OCCOCCOCC(=O)O)c1` [Example 3]: in data set [1], the “% Inhibition” value came to 49%; the “Colon weight:length” value was determined as 0.032 ± 0.004. Besides, the “Activity compared to the two Reference Compounds (colon weight to length ratio)” value in data set [1] (simple aqueous-based vehicle) is reported as “superior activity”. In data set [2] (setting [4]), the solubility thermodynamic at 24 h was 280 µg/mL (≈ 342 µM). For the same compound, the solubility thermodynamic at 24 h in data set [2] (setting [5]) was 200 µg/mL (≈ 245 µM). Besides, in data set [3], the “Concentration, IB Timepoint 0 min” value was 0.0 µg/mL; the “Concentration, IB Timepoint 4 min” value is 255.7 µg/mL; the “Concentration, IB Timepoint 10 min” value is 255.9 µg/mL; the “Concentration, IB Timepoint 20 min” value was 251.7 µg/mL. In data set [3], the “Concentration, IB Timepoint 40 min” value was 249.2 µg/mL; the “Concentration, IB Timepoint 90 min” value was 253.5 µg/mL; the “Concentration, IB Timepoint 1,200 min” value is 239.0 µg/mL; the “Additional concentration, UCF Timepoint 90 min” value was 229.4 µg/mL. For the same compound, the “Additional concentration, UCF Timepoint 1,200 min” value in data set [3] was 169.9 µg/mL.

Consider `C#Cc1cc(Nc2nccc(Oc3ccc(NC(=O)Nc4cc(C(C)(C)C)nn4-c4ccc(C)cc4)c4ccccc34)n2)cc(C(=O)NCCOCCOCCOC)c1` [Reference Compound B, 3-((4-((4-(3-(3-(tert-butyl)-1-(p-tolyl)-1H-pyrazol-5-yl)ureido)naphthalen-1-yl)oxy)pyrimidin-2-yl)amino)-5-ethynyl-N-(2-(2-(2-methoxyethoxy)ethoxy)ethyl)benzamide], for which, in data set [1], the “% Inhibition” value came to 11%; the “Colon weight:length” value worked out at 0.041 ± 0.005. Further, in data set [2] (setting [4]), the solubility thermodynamic at 24 h was less than 1 µg/mL. Besides, in data set [2] (setting [5]), the solubility thermodynamic at 24 h was less than 1 µg/mL. Besides, in data set [3], the “Concentration, IB Timepoint 0 min” value is 0.0 µg/mL; the “Concentration, IB Timepoint 4 min” value was 1.1 µg/mL; the “Concentration, IB Timepoint 10 min” value is 0.9 µg/mL; the “Concentration, IB Timepoint 20 min” value was 1.3 µg/mL. Moreover, in data set [3], the “Concentration, IB Timepoint 40 min” value was 1.0 µg/mL; the “Concentration, IB Timepoint 90 min” value is 0.7 µg/mL; the “Concentration, IB Timepoint 1,200 min” value was 3.0 µg/mL; the “Additional concentration, UCF Timepoint 90 min” value was 0.7 µg/mL. For the same compound, the “Additional concentration, UCF Timepoint 1,200 min” value in data set [3] was 2.9 µg/mL.

The values above are taken from patent US10072034B2, “Kinase inhibitors” (Respivert Limited, priority 2016, dated 2018).
